For data set [1], the target named is T1, CYP2C8 (Homo sapiens, UniProt P10632).
T1 sequence (P10632 1-490): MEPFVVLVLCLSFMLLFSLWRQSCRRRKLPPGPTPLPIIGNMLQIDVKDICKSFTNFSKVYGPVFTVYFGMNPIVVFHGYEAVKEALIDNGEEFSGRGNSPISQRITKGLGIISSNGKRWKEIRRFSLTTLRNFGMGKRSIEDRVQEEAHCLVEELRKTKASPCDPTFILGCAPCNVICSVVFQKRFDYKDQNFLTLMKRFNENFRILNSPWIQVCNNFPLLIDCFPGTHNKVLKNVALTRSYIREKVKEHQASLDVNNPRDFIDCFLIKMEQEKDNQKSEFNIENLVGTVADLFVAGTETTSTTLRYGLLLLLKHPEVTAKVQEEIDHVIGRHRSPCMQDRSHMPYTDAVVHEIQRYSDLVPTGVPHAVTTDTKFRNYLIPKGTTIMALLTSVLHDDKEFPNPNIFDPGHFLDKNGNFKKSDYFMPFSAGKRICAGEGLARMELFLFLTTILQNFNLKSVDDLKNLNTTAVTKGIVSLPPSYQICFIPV
Kind of data set: in vitro. Particulars: for inhibition at 15 min, 10 µM: human, microsomes, pH 7.4. As to the method: (§1) The contents of organic solvent and DMSO in incubation mixture was under 1% (v/v) and 0.1% (v/v) respectively. Reactions were terminated by adding 200 µL of an ice-cold stop solution consisting of methanol containing Rutin (2 µg/ml) as internal standard. Samples were subsequently cooled in ice bath to precipitate proteins. Supernatants were collected into clean tubes after centrifugation at 12000 rpm at 4°C for 10 min prior to inject into LC-MS/MS.
(§2) Percentages of control activity were calculated to determine inhibition potency. The inhibition curves were obtained by incubating the cocktail of substrates with 10–11 different compounds’ concentrations, where Delicaflavone and Amentoflavone were 0–50 µM.
(§3) For specific MRM parameters, please refer to Supplementary Table S3.

For data set [2], the target named is CYP2C9 (Homo sapiens, UniProt P11712). Kind of data set: in vitro. Particulars: for inhibition at 15 min, 10 µM: human, microsomes, pH 7.4. The protocol: as §1, §2, §3
In data set [3] the target is CYP2E1 (Homo sapiens, UniProt P05181). Kind of data set: in vitro. Conditions: for inhibition at 15 min, 10 µM: human, pH 7.4. The protocol:
as §1, §2, §3

For data set [4], the target named is CYP3A (Homo sapiens, UniProt P08684). Kind of data set: CYP450 cocktail inhibition assay (LC-MS/MS, human liver microsomes). The class given is in vitro ADME. Conditions: for inhibition at 15 min, 10 µM / IC50 at 15 min: human, liver microsomes. On the technique in general: Liver microsomes are a subcellular fraction often used to study metabolism.
In data set [5] the target is T2, CYP1A2 (Homo sapiens, UniProt P05177).
T2 sequence (P05177 1-516): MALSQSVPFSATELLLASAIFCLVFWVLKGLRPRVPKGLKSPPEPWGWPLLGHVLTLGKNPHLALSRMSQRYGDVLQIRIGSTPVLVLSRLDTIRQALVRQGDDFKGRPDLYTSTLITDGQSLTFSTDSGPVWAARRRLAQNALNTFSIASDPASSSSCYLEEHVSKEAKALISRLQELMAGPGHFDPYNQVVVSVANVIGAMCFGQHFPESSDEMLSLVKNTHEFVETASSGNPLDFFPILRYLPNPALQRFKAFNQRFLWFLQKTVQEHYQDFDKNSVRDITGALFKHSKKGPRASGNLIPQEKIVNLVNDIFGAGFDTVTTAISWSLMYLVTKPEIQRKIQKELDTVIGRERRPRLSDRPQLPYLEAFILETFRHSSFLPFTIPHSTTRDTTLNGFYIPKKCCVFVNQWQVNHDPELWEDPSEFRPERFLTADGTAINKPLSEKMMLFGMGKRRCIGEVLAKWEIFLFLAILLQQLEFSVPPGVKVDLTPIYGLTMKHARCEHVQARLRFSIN
The data set is described as above. In kind it is in vitro ADME. Conditions: for IC50: HLM 0.5 mg/mL, substrate Phenacetin 10 μM, 15 min. The protocol: as §1, §2, §3

The target in data set [6] is T3, CYP2C19 (Homo sapiens, UniProt P33261). Described as above. As to the method: as §1, §2, §3
Data set [7] deals with T4, CYP2D6 (Homo sapiens, UniProt P10635). The data set is described as above. The protocol:
as §1, §2, §3

The target in data set [8] is T3, CYP2C19. Kind of data set: Time-dependent inhibition study (pre-incubation with HLM with/without NADPH, cocktail assay). The class given is in vitro ADME. Particulars: single point screening; SDEA 0.5 μg/ml, Amentoflavone 0.1 μM, Delicaflavone 2 μM; 35 min pre-incubation with/without NADPH. As to the method: (§4) Enzymes that may be involved in time-dependent were pre-incubated for 0, 5, 10, 15 and 35 min respectively, and then re-incubated to determine the type of inhibition. Residual enzyme activity pre-incubated without NADPH was set as the control group, then drawing suppression curves based on the measured data.

Data set [9] has as its target T4, CYP2D6. Described as above. The class given is in vitro ADME. Conditions: single point screening; SDEA 0.5 μg/ml, Amentoflavone 0.1 μM, Delicaflavone 2 μM; 35 min pre-incubation with/without NADPH. As to the method:
as §4

In data set [10] the test system is CYP3A (Testosterone). The description is as above. In kind it is in vitro ADME, human. Particulars: single point screening; SDEA 0.5 μg/ml, Delicaflavone 2 μM; 35 min pre-incubation with/without NADPH. As to the method:
as §4

The mark [11] stands for this setting: pH 7.4, probe Testosterone (in cocktail), single-point, 10 μM, cocktail assay, HLM, substrate Testosterone, read-out: inhibitory effect on CYP3A (Testosterone).
Where [12] appears, read: single-point, 10 μM, cocktail assay, HLM.
The mark [13] stands for this setting: pH 7.4, probe Dextromethorphan (3-methoxymorphinan formation, in cocktail).
Where [14] appears, read: pH 7.4, probe Testosterone 5 µM (in cocktail).

Like-named read-outs stand apart in the source and are kept apart here. A value given as a limit tells only on which side of the number the result lay.

T3 sequence (P33261 whole entry): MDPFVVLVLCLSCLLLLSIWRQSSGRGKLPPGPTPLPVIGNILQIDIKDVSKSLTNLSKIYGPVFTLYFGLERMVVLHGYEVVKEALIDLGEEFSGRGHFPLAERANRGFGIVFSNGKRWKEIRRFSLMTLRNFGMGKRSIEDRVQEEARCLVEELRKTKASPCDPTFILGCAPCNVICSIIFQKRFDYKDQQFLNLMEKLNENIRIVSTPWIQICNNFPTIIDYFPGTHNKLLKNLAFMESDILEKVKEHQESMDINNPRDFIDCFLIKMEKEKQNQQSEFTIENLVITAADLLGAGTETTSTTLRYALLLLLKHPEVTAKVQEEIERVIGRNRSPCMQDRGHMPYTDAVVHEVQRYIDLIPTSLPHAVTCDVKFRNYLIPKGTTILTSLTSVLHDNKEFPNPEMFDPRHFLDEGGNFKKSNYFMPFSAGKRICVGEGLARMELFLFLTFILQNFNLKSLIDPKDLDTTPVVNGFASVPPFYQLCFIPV
Chain of CYP3A (P08684 2-503): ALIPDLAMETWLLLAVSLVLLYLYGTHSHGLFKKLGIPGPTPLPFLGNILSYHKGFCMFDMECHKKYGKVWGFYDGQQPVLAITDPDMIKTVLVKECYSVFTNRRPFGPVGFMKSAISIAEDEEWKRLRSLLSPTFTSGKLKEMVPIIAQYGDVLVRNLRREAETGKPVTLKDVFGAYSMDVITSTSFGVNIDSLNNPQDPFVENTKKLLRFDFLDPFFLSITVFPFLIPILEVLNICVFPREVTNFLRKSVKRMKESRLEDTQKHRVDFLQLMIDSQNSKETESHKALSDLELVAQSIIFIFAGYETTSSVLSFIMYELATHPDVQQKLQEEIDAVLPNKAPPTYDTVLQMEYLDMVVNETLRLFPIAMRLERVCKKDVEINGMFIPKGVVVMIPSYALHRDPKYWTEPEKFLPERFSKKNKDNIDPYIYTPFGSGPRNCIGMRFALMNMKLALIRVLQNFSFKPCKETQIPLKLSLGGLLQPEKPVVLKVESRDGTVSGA
T4 sequence (P10635 whole entry): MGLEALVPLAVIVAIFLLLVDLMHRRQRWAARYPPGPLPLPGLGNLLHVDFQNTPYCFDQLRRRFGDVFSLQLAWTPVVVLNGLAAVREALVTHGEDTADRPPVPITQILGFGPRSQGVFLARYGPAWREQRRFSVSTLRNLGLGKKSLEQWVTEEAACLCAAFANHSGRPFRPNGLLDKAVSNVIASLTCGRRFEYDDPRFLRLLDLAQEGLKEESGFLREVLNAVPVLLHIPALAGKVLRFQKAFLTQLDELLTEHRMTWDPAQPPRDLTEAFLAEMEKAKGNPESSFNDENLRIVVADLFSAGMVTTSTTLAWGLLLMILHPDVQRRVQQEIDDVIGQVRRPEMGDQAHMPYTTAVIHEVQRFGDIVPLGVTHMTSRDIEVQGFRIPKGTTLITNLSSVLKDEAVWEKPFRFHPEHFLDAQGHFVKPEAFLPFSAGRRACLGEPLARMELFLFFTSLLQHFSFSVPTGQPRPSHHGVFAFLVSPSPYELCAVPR
Chain of CYP2C9 (P11712 whole entry): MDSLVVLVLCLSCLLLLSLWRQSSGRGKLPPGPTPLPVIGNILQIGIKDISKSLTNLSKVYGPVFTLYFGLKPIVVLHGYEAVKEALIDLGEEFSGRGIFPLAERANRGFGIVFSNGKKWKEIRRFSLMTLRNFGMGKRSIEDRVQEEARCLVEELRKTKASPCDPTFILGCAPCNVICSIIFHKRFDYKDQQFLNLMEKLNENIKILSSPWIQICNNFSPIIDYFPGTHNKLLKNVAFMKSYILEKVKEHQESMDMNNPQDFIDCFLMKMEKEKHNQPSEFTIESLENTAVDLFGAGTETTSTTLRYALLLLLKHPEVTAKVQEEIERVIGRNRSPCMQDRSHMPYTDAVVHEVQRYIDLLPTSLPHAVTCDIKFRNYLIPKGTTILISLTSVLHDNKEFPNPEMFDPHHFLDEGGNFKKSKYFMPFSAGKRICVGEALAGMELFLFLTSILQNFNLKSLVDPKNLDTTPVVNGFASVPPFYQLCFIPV
Chain of CYP2E1 (P05181 whole entry): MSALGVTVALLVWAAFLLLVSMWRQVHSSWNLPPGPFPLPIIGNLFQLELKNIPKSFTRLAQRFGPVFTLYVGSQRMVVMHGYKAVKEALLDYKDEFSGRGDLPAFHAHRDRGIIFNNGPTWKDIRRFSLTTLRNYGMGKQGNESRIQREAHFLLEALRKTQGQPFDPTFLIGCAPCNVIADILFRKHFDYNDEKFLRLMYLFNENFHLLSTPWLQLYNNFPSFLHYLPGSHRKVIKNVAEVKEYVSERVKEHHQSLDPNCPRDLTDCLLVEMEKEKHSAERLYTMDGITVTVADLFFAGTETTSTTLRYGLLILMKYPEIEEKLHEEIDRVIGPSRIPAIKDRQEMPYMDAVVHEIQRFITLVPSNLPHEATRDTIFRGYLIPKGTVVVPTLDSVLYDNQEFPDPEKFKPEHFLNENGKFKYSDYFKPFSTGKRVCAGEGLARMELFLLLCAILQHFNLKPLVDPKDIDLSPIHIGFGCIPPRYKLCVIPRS

Turning to `O=c1cc(-c2ccc(O)cc2)oc2cc(O)cc(O)c12` [Apigenin], the inhibition at 15 min, 10 µM in [1], in data set [2], in [3] (microsomes) and in [4] (setting [11]) was greater than 50% in each case.

`O=c1cc(-c2ccc(Oc3c(-c4ccc(O)cc4)oc4cc(O)cc(O)c4c3=O)cc2)oc2cc(O)cc(O)c12` [Delicaflavone]: the IC50 (in general, the concentration at which inhibition is half-maximal) amounted to 105 µM in data set [5]; 72.8 µM in [6]; 13.4 µM in data set [1]; 40 µM in data set [2]; 2.86 µM in [3]. The “inhibitory effect on CYP1A2” value in data set [5] (single-point, 10 μM, HLM) is given as “no obvious inhibitory effect”. The “inhibitory effect on CYP2C19” value in data set [6] (setting [12]) is “no obvious inhibitory effect”. Besides, the “inhibitory effect on CYP2C8” value in data set [1] (setting [12]) is “no obvious inhibitory effect”. For the same compound, in data set [2] (setting [12]), the “inhibitory effect on CYP2C9” value is on record as “no obvious inhibitory effect”. Moreover, the “inhibitory effect on CYP2D6” value in data set [7] (setting [12]) is on record as “no obvious inhibitory effect”. For the same compound, the “inhibitory effect on CYP2E1” value in data set [3] (setting [12]) is listed as “weak inhibitory effect”. Also, the IC50 at 15 min in data set [4] (setting [13]) came out at 33.3 µM; in data set [4] (setting [14]), 7.25 µM. Also, in data set [4] (single-point, 10 μM, cocktail assay, HLM, substrate not specified), the “inhibitory effect on CYP3A” value is “weak inhibitory effect”. The “time-dependent inhibition on CYP2C19” value in [8] is “did not produce time-dependent inhibition effect”. Further, the “time-dependent inhibition on CYP2D6” value in data set [9] was “did not produce time-dependent inhibition effect”. The “time-dependent inhibition on CYP3A (Testosterone)” value in data set [10] is recorded as “did not produce time-dependent inhibition effect”.

With `COc1cc2c(cc1OC)-c1cc3ccc(OC)c(OC)c3c[n+]1CC2` [Palmatine], the “inhibitory effect on CYP2E1” value in [3] (microsomes, 10 µM) is on record as “weak inhibitory effect”. Moreover, in data set [4] (setting [11]), the inhibition at 15 min, 10 µM was greater than 50%.

Consider `O=c1cc(-c2ccc(O)c(-c3c(O)cc(O)c4c(=O)cc(-c5ccc(O)cc5)oc34)c2)oc2cc(O)cc(O)c12` [Amentoflavone], for which the IC50 in data set [5] worked out at 3.7 µM; in data set [6], 1.06 µM; in data set [1], 0.144 µM; in data set [2], 0.142 µM; in data set [7] it was 4.6 µM; in data set [3], 1.05 µM. Moreover, the inhibition at 15 min, 10 µM is greater than 50% in [5] (human, liver microsomes, pH 7.4, probe Phenacetin (in cocktail), single-point, 10 μM, HLM, read-out: inhibitory effect on CYP1A2); greater than 50% in data set [6] (human, microsomes, pH 7.4); greater than 50% in data set [1]; greater than 50% in data set [2]; greater than 50% in data set [7] (human, microsomes, pH 7.4); greater than 50% in data set [3] (microsomes). Further, the inhibition at 15 min, 10 µM in data set [4] (pH 7.4, single-point, 10 μM, cocktail assay, HLM, substrate not specified, read-out: inhibitory effect on CYP3A) was greater than 50%. Further, the IC50 at 15 min in [4] (setting [13]) came to 0.827 µM; in data set [4] (setting [14]), 0.435 µM.

The record behind these values is publication PMC9975586, “Inhibitory effect of Selaginella doederleinii hieron on human cytochrome P450” (Frontiers in Pharmacology, 2023).
